Data published in article PMC11653257, “Organometallic Half-Sandwich Complexes of 8-Hydroxyquinoline-Derived Mannich Bases with Enhanced Solubility: Targeting Multidrug Resistant Cancer” (Inorganic Chemistry, 2024).

Assays:
[1] = tested on: Staphylococcus aureus (ATCC 25923); assay: Antibacterial MIC, S. aureus; format: cell-based; settings: Mueller Hinton Broth, 37 °C, 18 h
Experimental: (§1) Escherichia coli (ATCC 25922) was used as Gram-negative strain and Staphylococcus aureus (ATCC 25923, methicillin-resistant (MRSA) ATCC 43300) strains were applied as Gram-positive bacterial cultures in the experiments. MIC values of the compounds were determined in 96-well plates based on the Clinical and Laboratory Standard Institute guidelines (CLSI guidelines).[76] The stock solutions of the compounds (same as those used for cytotoxicity experiments) were diluted in 100 μL of Mueller Hinton Broth. Then, 10^–4 dilution of an overnight bacterial culture in 100 μL of medium was added to each well, with the exception of the medium control wells.

[2] = Ligand displacement with 2,2′-bipyridine, conditional formation constant; format: physicochemical; settings: pH 7.4; bpy competitor; UV–vis
Text: These pKa (H2O) values are lower than those of the complexes formed with the corresponding amino acid hybrids (HQCl-D-Pro, HQCl-D-hPro, Figure S23). Thus, the predominant complex at pH 7.4 is [M(arene)(HL)(H2O)]^2+ in all cases, in which the bidentate ligand coordinates via the (N,O^–) donor set and the pyridinium or pyrrolidinium nitrogens are protonated just like in the isolated complexes (Chart 3). Based on the unchanged spectra (vide supra), these types of complexes show no dissociation at pH = 2, indicating their high stability and hindering the direct determination of the formation constants. Therefore, a ligand displacement experiment was performed using UV–vis spectrophotometry with 2,2′-bipyridine (bpy) as a competitor to determine conditional formation constants at pH = 7.4 (Figure S25). […] Nevertheless, these values indicate a high stability of the complexes in solution, and <1% of dissociation is estimated at 1 μM concentration at pH = 7.4. The ligand displacement measurement could not be applied to the RuCym complexes due to the release of the p-cymene ring followed by the formation of the mixed ligand complex with bpy and oxidation of the metal center (Figure S26), similarly to analogue complexes.[14],[26],[27]

[3] = target: human serum albumin (HSA), Trp214 / site I (Homo sapiens, UniProt P02768); assay: HSA Trp214 fluorescence quenching; settings: 1 μM HSA; λEX = 295 nm (Trp-214); pH 7.4 (PBS’); […]; 24 h
Experimental: (§4) Next, spectrofluorometric measurements were also performed to gain insight into the binding interactions that may occur in the hydrophobic binding sites of HSA. Tryptophan (Trp214) quenching experiments were conducted for the complexes (1–4) (for complex (3) see Figure S31) and their ligands). […] To monitor the binding at site II, site marker displacement experiments were performed using dansylglycine (DG).
(§5) Fluorescence measurements were carried out on a Fluoromax (Horiba Jobin Yvon, Longjumeau, France) spectrofluorometer using a 1 cm × 1 cm quartz cuvette. […] Excitation wavelengths were 295 nm for Trp-214 quenching and 340 nm for the DG displacement studies. The calculated conditional stability constants for HSA–complex species were obtained using the computer program HypSpec.[64] Calculations always were based on data obtained from at least two independent measurements.

[4] = target: human serum albumin (HSA), site II (Homo sapiens, UniProt P02768); assay: HSA dansylglycine (DG) site marker displacement; settings: cHSA = cDG = 1 μM; λEX = 335 nm (DG); pH 7.4 (PBS’); […]; 24 h
Experimental: as §4, §5

MES-SA [5] = assay: Cytotoxicity in double coculture, MES-SA mCherry; settings: read-out: IC50 MES-SA; double coculture with MES-SA/Dx5; 144 h; without TQ
Experimental: (§6) Therefore, the novel half-sandwich complexes (1–4) and their corresponding ligands were tested against a coculture of MES-SA and MES-SA/Dx5 cells expressing the fluorescent proteins mCherry or eGFP, respectively.[62]
(§7) The tested compounds were dissolved in 50% (v/v) DMSO/PBS’ buffer to prepare 5–10 mM stock solutions, which were diluted in complete culture medium. Constitutive expression of the fluorescent proteins allowed multiplexing in cytotoxicity experiments.[62] […] Serial dilutions of the compounds were added 24 h after seeding. To address the effect of P-gp function, TQ was added at a nontoxic concentration (0.4 μM) 15 min before the test compounds. […] IC50 values and standard deviation were calculated from average pIC50 values from at least 3 independent measurements.

[6] = pKa of in situ prepared complexes by pH-potentiometry; format: physicochemical; settings: I = 0.20 M KNO3
Text: The results, shown in Table 2, indicate good agreement between the data obtained by the different methods. It should be noted that these processes show overlap in all cases, and therefore, the assignment of the pKa values to the given moieties cannot be made reliably. However, by comparing the spectral changes with those observed for HQ and other simple derivatives,[25] it can be concluded that the lower pKa likely belongs to the deprotonation of the aqua coligand.
The pH-potentiometric measurements were carried out at 25.0 ± 0.1 °C in water in the pH range between 2.0 and 11.5 and at a constant ionic strength of 0.20 M KNO3. The titrations were performed in a carbonate-free KOH solution (0.20 M). The exact concentrations of the HNO3 and KOH solutions were determined by pH-potentiometric titrations. An Orion 710A pH-meter equipped with a Metrohm combined electrode (type 6.0234.100) and a Metrohm 665 Dosimat buret were used for this purpose. […] The average water ionization constant, pKw, was determined as 13.76 ± 0.01, which is in good agreement with the literature data.[67] The initial volume of the samples was 10.0 mL. […] Samples were degassed by bubbling purified argon through them for about 10 min prior to the measurements, and the inert gas was also passed over the solutions during the titrations. The computer program Hyperquad2013[64] was utilized to establish the stoichiometry of the species and to calculate the equilibrium constants.

[7] = n-octanol/water distribution coefficient (shake-flask); format: physicochemical; settings: pH 7.4, […]
Experimental: The exchange of the coligand (H2O/Cl^–) changes the overall charge of the complex, thus affecting lipophilicity. […] The traditional shake-flask method was used to obtain distribution coefficients of the ligands as well as of the complexes in n-octanol/buffered aqueous solution (20 mM phosphate, pH = 7.4) at different chloride ion concentrations (4, 24, and 100 mM) using UV–vis spectrophotometry (Agilent Cary 8454 diode array spectrophotometer, Santa Clara, CA, USA) for the analysis. The compounds were dissolved in buffered aqueous solutions previously saturated with n-octanol. Then the aqueous and n-octanol phases were gently mixed in different volume ratios (using 1:60 for the ligands, 1:1 for the RhCp* and 1:2 for the RuCym complexes ratios of n-octanol to buffered aqueous solution volume) for 4 h, followed by phase separation. Then the UV–vis spectrum of the aqueous or n-octanol phase was recorded and compared to the reference spectrum. Stock solutions were made in the aqueous phase, and distribution coefficients (DpH) were calculated by the following equation: [drawing 3]

[8] = tested on: Escherichia coli (ATCC 25922); assay: Antibacterial MIC, E. coli; format: cell-based; settings: Mueller Hinton Broth, 37 °C, 18 h
Experimental: as §1

[9] = H2O/Cl– coligand exchange by UV–vis titration with chloride ions; format: physicochemical
Experimental: When the isolated complexes (1–4) are dissolved in water, their chlorido coligand can be replaced by water, or vice versa in the aqua complexes [M(arene)(HL)(H2O)]^2+, the H2O → Cl^– exchange process can take place in the presence of chloride ions. The chloride ion affinity of the complexes was also investigated by UV–vis spectrophotometry. RhCp* and RuCym complexes were titrated with chloride ions at pH 7.4 and 6.0, respectively. For this experiment, pH values were chosen at which the formation of the mixed hydroxido species is negligible. A representative spectrum series for complex (4) is shown in Figure S27, and the calculated conditional exchange constants (logK’ (H2O/Cl^–)) are given in Table 2 and in Figure S23. […] The complexes of the amino acid hybrids HQCl-D-Pro and HQCl-D-hPro have lower logK’ (H2O/Cl^–) constants most likely due to the repulsive effect of the nearby COO^– group.[26]

[10] = tested on: methicillin-resistant S. aureus (MRSA) ATCC 43300; assay: Antibacterial MIC, MRSA; format: cell-based, Staphylococcus aureus; settings: Mueller Hinton Broth, 37 °C, 18 h
Experimental: as §1

MES-SA/Dx5 [11] = assay: Cytotoxicity in double coculture, MES-SA/Dx5 eGFP; settings: for SR = IC50 (MES-SA)/IC50 (MES-SA/Dx5): double coculture; for IC50: read-out: IC50 MES-SA/Dx5, double coculture with MES-SA, 144 h
Experimental: as §6, §7

MES-SA [12] = assay: Cytotoxicity in triple coculture, MES-SA mCherry; format: cell-based, human; settings: Homo sapiens, MES-SA/B1, MES-SA/Dx5, 144 h
Experimental: (§2) Cell lines were purchased from the American Type Culture Collection (ATCC). MES-SA/B1 is a human MDR1-transfected derivative of MES-SA, and MES-SA mCherry, MES-SA/B1 mOrange, and MES-SA/Dx5 eGFP were engineered to stably express the respective fluorescent proteins previously.[62] Cells were kept in culture medium (DMEM) supplemented with 10% fetal bovine serum, 2 mM L-glutamine, 100 units/mL penicillin, and 100 μg/mL streptomycin (Thermo Fisher). One week before use, MES-SA/Dx5 eGFP cells were treated with 0.5 μM doxorubicin to ensure ABCB1/P-gp expression.
(§3) The tested compounds were dissolved in 50% (v/v) DMSO/PBS’ buffer to prepare 5–10 mM stock solutions, which were diluted in complete culture medium. Constitutive expression of the fluorescent proteins allowed multiplexing in cytotoxicity experiments.[62] Cells were mixed before seeding in 384-well plates: in double cocultures, MES-SA mCherry and MES-SA/Dx5 eGFP cells were seeded at 1250–1250 cells/well (in total 2500 cells/well); while in triple cocultures, MES-SA mCherry, MES-SA/Dx5 eGFP and MES-SA/B1 mOrange cells were seeded at 800–800–800 cells/well (in total 2400 cells/well). Serial dilutions of the compounds were added 24 h after seeding. To address the effect of P-gp function, TQ was added at a nontoxic concentration (0.4 μM) 15 min before the test compounds. The intensity of the fluorescent proteins, which is proportional to cell mass, was measured after 144 h of incubation at the respective fluorescent channels (excitation/emission: eGFP: 485 nm/510 nm; mOrange: 545 nm/567 nm; mCherry: 585 nm/610 nm). pIC50 values were calculated by a custom program written by Judit Sessler in C#.[62] IC50 values and standard deviation were calculated from average pIC50 values from at least 3 independent measurements.

MES-SA/B1 = assay: Cytotoxicity in triple coculture, MES-SA/B1 mOrange; format: cell-based, human
Experimental: as §2, §3

MES-SA/Dx5 [13] = assay: Cytotoxicity in triple coculture, MES-SA/Dx5 eGFP; format: cell-based, human
Experimental: as §2, §3

[14] = pKa of in situ prepared complexes by UV–vis titration; format: physicochemical; settings: 1:1 system, absence of chloride, I = 0.20 M KNO3
Text: The UV–vis spectra of the complexes prepared in situ were then followed at different pH values in the absence of chloride ions. No spectral changes were observed between pH = 2–6.3 (RuCym) or 7.5 (RhCp*), indicating high solution stability in both cases; however, the changes were significant in the basic pH range (Figure S22). In the case of RuCym complexes, two overlapping processes associated with the deprotonation of the coordinated water molecule and the noncoordinated Npyr/pipH^+ moiety were observed. […] The pKa values determined for these processes are shown in Table 2 and Figure S23 together with the values obtained for complexes formed with the amino acid hybrids HQCl-D-Pro and HQCl-D-hPro (Chart 2) for comparison.[26]
An Agilent Cary 8454 diode array spectrophotometer was utilized to obtain UV–vis spectra in the wavelength range 190–1100 nm. The path length (l) was 1 or 2 cm in most cases (the actual l is always indicated in the legends of the figures). The concentrations of the ligands and complexes were between 36 and 100 μM. The ligands were titrated in the presence of 10 equiv of EDTA. Individual samples contained 0–37 μM HSA, 0–206 μM MIM, 0–759 μM AHA, or 0–733 μM FHA. Spectra were always background and baseline corrected. The computer program HypSpec[64] was used to obtain stability constants.

Chain of human serum albumin (HSA), site II (P02768 25-609): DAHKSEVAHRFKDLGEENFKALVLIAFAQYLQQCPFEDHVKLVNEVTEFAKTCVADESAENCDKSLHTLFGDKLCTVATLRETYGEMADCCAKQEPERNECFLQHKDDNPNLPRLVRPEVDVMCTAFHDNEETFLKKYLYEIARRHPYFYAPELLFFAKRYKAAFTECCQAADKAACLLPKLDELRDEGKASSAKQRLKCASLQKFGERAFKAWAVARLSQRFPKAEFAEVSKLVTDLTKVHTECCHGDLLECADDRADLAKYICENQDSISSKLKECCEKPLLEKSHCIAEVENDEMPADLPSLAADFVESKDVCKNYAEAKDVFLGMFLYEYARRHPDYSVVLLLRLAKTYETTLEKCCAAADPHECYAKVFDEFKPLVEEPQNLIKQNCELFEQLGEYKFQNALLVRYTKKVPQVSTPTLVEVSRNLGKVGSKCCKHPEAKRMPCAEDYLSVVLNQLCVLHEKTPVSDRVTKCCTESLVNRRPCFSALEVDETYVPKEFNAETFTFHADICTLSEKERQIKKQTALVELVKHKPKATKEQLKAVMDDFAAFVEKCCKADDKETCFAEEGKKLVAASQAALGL
Chain of human serum albumin (HSA), Trp214 / site I (P02768 25-609): as above

Compound	MIC [1] [µM]	logK’(quenching) [3]	logK’(DG) [4]	IC50 (MES-SA [5]) [nM]	pKa (H2O) [6]	pKa (Npyr/pipH+) [6]	logD7.4 ([7]; c(Cl–) = 4 mM)	logD7.4 ([7]; c(Cl–) = 24 mM)	logD7.4 ([7]; c(Cl–) = 100 mM)	MIC [8] [µM]	MIC [10] [µM]	SR = IC50 (MES-SA)/IC50 (MES-SA/Dx5) (MES-SA/Dx5 [11]; + 0.4 μM tariquidar (TQ))	SR = IC50 (MES-SA)/IC50 (MES-SA/Dx5) (MES-SA/Dx5 [11]; without TQ)	IC50 (MES-SA/Dx5 [11]; without TQ) [nM]	other results
Cc1c(C)c(C)[c-](C)c1C.[Cl-].[Cl-].[O-]c1c(C[NH+]2CCCC2)cc(Cl)c2cccnc12.[Rh+3] [(1), [RhCp*(HQCl-Pyr)Cl]Cl]	50	5.1 ± 0.1	5.0 ± 0.1	2970	9.35 ± 0.03	10.47 ± 0.03	–0.11 ± 0.01	+0.12 ± 0.01	+0.22 ± 0.01	50	50	1.3	16.0	190	logK’ [M(arene)L]7.4 conditional formation constant [2]: 12.06 ± 0.02; logK’ (H2O/Cl–) ([9]; RhCp* complexes titrated at pH 7.4): 2.23 ± 0.02
COc1cc([C@@H]2c3cc4c(cc3[C@@H](O[C@@H]3O[C@@H]5CO[C@@H](C)O[C@H]5[C@H](O)[C@H]3O)[C@H]3COC(=O)[C@H]23)OCO4)cc(OC)c1O [etoposide]															IC50 (MES-SA [12]): 260 nM; SR B1 = IC50 (MES-SA)/IC50 (MES-SA/B1) (MES-SA/B1): 0.22; SR Dx5 = IC50 (MES-SA)/IC50 (MES-SA/Dx5) (MES-SA/Dx5 [13]): 0.15; IC50 (MES-SA/Dx5 [13]; Homo sapiens, MES-SA/Dx5, 144 h): 1700 nM
[RuCym(HQCl-Pyr)Cl]Cl [(2)]	> 100	5.3 ± 0.2	5.2 ± 0.1	8970	8.47 ± 0.04	10.40 ± 0.03	–0.12 ± 0.02	+0.23 ± 0.03	+0.46 ± 0.02	> 100	> 100	0.1	3.2	2780	pKa (H2O) [14]: 8.42 ± 0.03; pKa (Npyr/pipH+) [14]: 10.32 ± 0.03; logK’ (H2O/Cl–) ([9]; RuCym complexes titrated at pH 6.0): 1.60 ± 0.07
